{
  "source": "paper PMC5290327",
  "about": "“SC83288 is a clinical development candidate for the treatment of severe malaria” (Nature Communications, 2017)",
  "assay_in_all_cases": "KINOMEscan",
  "format_in_all_cases": "binding",
  "conditions_in_all_cases": "read-out: Remaining enzyme activity",
  "key": {"FLT3(D835H)": {"target": "T1, FLT3(D835H) (Homo sapiens, UniProt P36888, D835H)", "T1 construct": "purchased Ambit (DiscoverX) KINOMEscan; Cerep", "method_in_brief": "(§1)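 Kinase preparations were T7 phage fusions produced in E. coli (32 °C until lysis, lysates clarified) or HEK-293-expressed proteins with DNA tags. These were mixed with immobilized active-site ligand and SC81458 at 10 μM. The amount of kinase in eluates was determined by qPCR.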"}, "CAMK1d": {"target": "T2, CAMK1d (Homo sapiens, UniProt Q8IU85)", "T2 construct": "purchased Ambit (DiscoverX) KINOMEscan; Cerep", "method_in_brief": "as §1"}, "DCAMKL1": {"target": "T3, DCAMKL1 (Homo sapiens, UniProt O15075)", "T3 construct": "purchased Ambit (DiscoverX) KINOMEscan; Cerep", "method_in_brief": "as §1"}, "IKK-epsilon": {"target": "T4, IKK-epsilon (Homo sapiens, UniProt Q14164)", "T4 construct": "purchased Ambit (DiscoverX) KINOMEscan; Cerep", "method_in_brief": "as §1"}, "ICK": {"target": "T5, ICK (Homo sapiens, UniProt Q9UPZ9)", "T5 construct": "purchased Ambit (DiscoverX) KINOMEscan; Cerep", "method_in_brief": "as §1"}, "DAPK1": {"target": "T6, DAPK1 (Homo sapiens, UniProt P53355)", "T6 construct": "purchased Ambit (DiscoverX) KINOMEscan; Cerep", "method_in_brief": "as §1"}, "STK33": {"target": "T7, STK33 (Homo sapiens, UniProt Q9BYT3)", "T7 construct": "purchased Ambit (DiscoverX) KINOMEscan; Cerep", "method_in_brief": "as §1"}, "MST3": {"target": "T8, MST3 (Homo sapiens, UniProt Q9Y6E0)", "T8 construct": "purchased Ambit (DiscoverX) KINOMEscan; Cerep", "method_in_brief": "as §1"}, "CAMK2a": {"target": "T9, CAMK2a (Homo sapiens, UniProt Q9UQM7)", "T9 construct": "purchased Ambit (DiscoverX) KINOMEscan; Cerep", "method_in_brief": "as §1"}, "FLT4": {"target": "T10, FLT4 (Homo sapiens, UniProt P35916)", "T10 construct": "purchased Ambit (DiscoverX) KINOMEscan; Cerep", "method_in_brief": "as §1"}, "PAK1": {"target": "T11, PAK1 (Homo sapiens, UniProt Q13153)", "T11 construct": "purchased Ambit (DiscoverX) KINOMEscan; Cerep", "method_in_brief": "as §1"}, "PIK3CA(M1043I)": {"target": "T12, PIK3CA(M1043I) (Homo sapiens, UniProt P42336, M1043I)", "T12 construct": "purchased Ambit (DiscoverX) KINOMEscan; Cerep", "method_in_brief": "as §1"}, "PIK3CA(E545A)": {"target": "T13, PIK3CA(E545A) (Homo sapiens, UniProt P42336, E545A)", "T13 construct": "purchased Ambit (DiscoverX) KINOMEscan; Cerep", "method_in_brief": "as §1"}, "ABL1": {"target": "T14, ABL1 (Homo sapiens, UniProt P00519)", "T14 construct": "purchased Ambit (DiscoverX) KINOMEscan; Cerep", "method_in_brief": "as §1"}, "SRC": {"target": "T15, SRC (Homo sapiens, UniProt P12931)", "T15 construct": "purchased Ambit (DiscoverX) KINOMEscan; Cerep", "method_in_brief": "as §1"}, "PIK3Cb": {"target": "T16, PIK3Cb (Homo sapiens, UniProt P42338)", "T16 construct": "purchased Ambit (DiscoverX) KINOMEscan; Cerep", "method_in_brief": "as §1"}, "ULK2": {"target": "T17, ULK2 (Homo sapiens, UniProt Q8IYT8)", "T17 construct": "purchased Ambit (DiscoverX) KINOMEscan; Cerep", "method_in_brief": "as §1"}, "DYRK1a": {"target": "T18, DYRK1a (Homo sapiens, UniProt Q13627)", "T18 construct": "purchased Ambit (DiscoverX) KINOMEscan; Cerep", "method_in_brief": "as §1"}, "ERK5": {"target": "T19, ERK5 (Homo sapiens, UniProt Q13164)", "T19 construct": "purchased Ambit (DiscoverX) KINOMEscan; Cerep", "method_in_brief": "as §1"}, "MLCK": {"target": "T20, MLCK (Homo sapiens, UniProt Q32MK0)", "T20 construct": "purchased Ambit (DiscoverX) KINOMEscan; Cerep", "method_in_brief": "as §1"}, "SIK2": {"target": "T21, SIK2 (Homo sapiens, UniProt Q9H0K1)", "T21 construct": "purchased Ambit (DiscoverX) KINOMEscan; Cerep", "method_in_brief": "as §1"}, "TIE2": {"target": "T22, TIE2 (Homo sapiens, UniProt Q02763)", "T22 construct": "purchased Ambit (DiscoverX) KINOMEscan; Cerep", "method_in_brief": "as §1"}, "GCN2(kin.Dom.2, S808G)": {"target": "T23, GCN2(kin.Dom.2, S808G) (Homo sapiens, UniProt Q9P2K8, S808G)", "T23 construct": "GCN2(kin.Dom.2, S808G); purchased Ambit (DiscoverX) KINOMEscan; Cerep", "T23 sequence (Q9P2K8 590-1001 S808G limits assumed)": "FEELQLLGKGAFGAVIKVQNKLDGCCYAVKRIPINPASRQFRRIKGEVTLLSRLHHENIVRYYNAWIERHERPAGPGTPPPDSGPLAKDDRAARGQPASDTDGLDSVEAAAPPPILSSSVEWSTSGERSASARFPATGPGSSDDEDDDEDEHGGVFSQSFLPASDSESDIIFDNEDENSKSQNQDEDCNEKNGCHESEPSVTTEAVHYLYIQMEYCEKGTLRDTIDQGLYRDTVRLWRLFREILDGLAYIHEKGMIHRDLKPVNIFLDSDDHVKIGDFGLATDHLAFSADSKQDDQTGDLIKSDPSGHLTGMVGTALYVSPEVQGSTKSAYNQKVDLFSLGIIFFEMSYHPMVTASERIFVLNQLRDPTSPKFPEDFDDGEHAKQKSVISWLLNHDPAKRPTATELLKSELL", "method_in_brief": "as §1"}, "YSK4": {"target": "T24, YSK4 (Homo sapiens, UniProt Q56UN5)", "T24 construct": "purchased Ambit (DiscoverX) KINOMEscan; Cerep", "T24 sequence (Q56UN5 whole entry)": "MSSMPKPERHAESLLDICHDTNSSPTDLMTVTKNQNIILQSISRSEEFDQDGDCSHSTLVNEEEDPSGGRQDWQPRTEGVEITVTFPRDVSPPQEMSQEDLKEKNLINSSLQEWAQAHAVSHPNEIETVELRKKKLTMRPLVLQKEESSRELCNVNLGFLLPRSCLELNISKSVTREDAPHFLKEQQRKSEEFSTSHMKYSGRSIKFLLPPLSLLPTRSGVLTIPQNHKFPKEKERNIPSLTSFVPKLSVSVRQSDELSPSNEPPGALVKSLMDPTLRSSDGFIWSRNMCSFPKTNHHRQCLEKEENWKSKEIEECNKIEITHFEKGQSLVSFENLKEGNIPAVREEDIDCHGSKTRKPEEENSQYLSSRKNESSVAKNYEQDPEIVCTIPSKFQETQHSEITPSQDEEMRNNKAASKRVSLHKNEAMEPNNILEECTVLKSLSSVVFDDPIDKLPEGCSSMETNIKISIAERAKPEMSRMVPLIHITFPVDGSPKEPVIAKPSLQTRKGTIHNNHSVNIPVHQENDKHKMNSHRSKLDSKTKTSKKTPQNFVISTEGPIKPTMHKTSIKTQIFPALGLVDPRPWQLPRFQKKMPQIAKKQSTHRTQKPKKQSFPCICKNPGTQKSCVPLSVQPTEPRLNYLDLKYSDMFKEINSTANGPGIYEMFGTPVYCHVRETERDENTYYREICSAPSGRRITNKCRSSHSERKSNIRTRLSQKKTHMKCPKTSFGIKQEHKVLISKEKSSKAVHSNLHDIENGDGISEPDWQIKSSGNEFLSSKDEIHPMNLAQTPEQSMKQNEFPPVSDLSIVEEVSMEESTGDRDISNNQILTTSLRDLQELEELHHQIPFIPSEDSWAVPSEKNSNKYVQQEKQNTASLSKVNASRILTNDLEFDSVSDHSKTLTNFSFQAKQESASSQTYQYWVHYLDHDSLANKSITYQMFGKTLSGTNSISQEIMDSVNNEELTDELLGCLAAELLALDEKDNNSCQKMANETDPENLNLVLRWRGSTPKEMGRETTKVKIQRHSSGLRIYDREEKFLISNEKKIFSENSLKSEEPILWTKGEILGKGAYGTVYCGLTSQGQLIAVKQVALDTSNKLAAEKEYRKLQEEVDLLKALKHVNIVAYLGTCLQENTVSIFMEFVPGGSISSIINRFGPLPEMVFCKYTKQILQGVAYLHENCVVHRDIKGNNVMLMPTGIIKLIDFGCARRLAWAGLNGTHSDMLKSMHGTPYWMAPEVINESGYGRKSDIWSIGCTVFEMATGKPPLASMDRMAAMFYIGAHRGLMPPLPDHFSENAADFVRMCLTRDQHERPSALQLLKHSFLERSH", "method_in_brief": "as §1"}, "MUSK": {"target": "T25, MUSK (Homo sapiens, UniProt O15146)", "T25 construct": "purchased Ambit (DiscoverX) KINOMEscan; Cerep", "method_in_brief": "as §1"}, "ABL2": {"target": "T26, ABL2 (Homo sapiens, UniProt P42684)", "T26 construct": "purchased Ambit (DiscoverX) KINOMEscan; Cerep", "T26 sequence (P42684 whole entry)": "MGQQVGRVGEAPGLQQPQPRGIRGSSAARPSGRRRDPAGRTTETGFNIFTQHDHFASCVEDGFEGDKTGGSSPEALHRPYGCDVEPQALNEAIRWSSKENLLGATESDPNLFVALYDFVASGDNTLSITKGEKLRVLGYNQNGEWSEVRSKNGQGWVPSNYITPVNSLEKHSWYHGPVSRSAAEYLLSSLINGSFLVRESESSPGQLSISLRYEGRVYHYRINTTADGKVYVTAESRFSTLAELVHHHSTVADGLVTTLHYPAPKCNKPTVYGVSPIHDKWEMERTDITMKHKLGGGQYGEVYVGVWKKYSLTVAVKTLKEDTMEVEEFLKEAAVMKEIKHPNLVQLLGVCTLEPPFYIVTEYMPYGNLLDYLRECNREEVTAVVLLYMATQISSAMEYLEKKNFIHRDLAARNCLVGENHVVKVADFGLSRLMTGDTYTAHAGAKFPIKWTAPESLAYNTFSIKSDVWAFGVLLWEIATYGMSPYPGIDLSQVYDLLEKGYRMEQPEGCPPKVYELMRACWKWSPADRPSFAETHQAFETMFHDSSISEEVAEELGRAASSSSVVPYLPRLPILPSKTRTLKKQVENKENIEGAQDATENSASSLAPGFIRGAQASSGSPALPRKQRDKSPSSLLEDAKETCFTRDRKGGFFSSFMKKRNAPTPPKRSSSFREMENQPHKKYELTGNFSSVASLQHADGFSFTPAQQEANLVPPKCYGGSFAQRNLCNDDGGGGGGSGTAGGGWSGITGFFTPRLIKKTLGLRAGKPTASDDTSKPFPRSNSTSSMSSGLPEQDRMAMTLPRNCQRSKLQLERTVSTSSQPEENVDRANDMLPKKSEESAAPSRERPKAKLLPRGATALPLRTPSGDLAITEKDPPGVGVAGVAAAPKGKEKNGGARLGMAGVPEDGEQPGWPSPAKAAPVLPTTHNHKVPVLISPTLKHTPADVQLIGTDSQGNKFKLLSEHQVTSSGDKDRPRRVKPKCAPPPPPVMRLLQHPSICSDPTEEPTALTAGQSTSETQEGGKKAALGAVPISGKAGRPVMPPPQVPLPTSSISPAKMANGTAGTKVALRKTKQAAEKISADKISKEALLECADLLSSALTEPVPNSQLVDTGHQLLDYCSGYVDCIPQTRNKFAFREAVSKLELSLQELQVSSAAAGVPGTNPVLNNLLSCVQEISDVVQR", "method_in_brief": "as §1"}, "[1]": {"target": "T27, RPS6KA2(Kin.Dom.2-C-term) (Homo sapiens, UniProt Q15349)", "T27 construct": "RPS6KA2(Kin.Dom.2-C-term); purchased Ambit (DiscoverX) KINOMEscan; Cerep", "method_in_brief": "as §1"}, "TLK2": {"target": "T28, TLK2 (Homo sapiens, UniProt Q86UE8)", "T28 construct": "purchased Ambit (DiscoverX) KINOMEscan; Cerep", "method_in_brief": "as §1"}, "STK39": {"target": "T29, STK39 (Homo sapiens, UniProt Q9UEW8)", "T29 construct": "purchased Ambit (DiscoverX) KINOMEscan; Cerep", "method_in_brief": "as §1"}, "MYO3b": {"target": "T30, MYO3b (Homo sapiens, UniProt Q8WXR4)", "T30 construct": "purchased Ambit (DiscoverX) KINOMEscan; Cerep", "T30 sequence (Q8WXR4 whole entry)": "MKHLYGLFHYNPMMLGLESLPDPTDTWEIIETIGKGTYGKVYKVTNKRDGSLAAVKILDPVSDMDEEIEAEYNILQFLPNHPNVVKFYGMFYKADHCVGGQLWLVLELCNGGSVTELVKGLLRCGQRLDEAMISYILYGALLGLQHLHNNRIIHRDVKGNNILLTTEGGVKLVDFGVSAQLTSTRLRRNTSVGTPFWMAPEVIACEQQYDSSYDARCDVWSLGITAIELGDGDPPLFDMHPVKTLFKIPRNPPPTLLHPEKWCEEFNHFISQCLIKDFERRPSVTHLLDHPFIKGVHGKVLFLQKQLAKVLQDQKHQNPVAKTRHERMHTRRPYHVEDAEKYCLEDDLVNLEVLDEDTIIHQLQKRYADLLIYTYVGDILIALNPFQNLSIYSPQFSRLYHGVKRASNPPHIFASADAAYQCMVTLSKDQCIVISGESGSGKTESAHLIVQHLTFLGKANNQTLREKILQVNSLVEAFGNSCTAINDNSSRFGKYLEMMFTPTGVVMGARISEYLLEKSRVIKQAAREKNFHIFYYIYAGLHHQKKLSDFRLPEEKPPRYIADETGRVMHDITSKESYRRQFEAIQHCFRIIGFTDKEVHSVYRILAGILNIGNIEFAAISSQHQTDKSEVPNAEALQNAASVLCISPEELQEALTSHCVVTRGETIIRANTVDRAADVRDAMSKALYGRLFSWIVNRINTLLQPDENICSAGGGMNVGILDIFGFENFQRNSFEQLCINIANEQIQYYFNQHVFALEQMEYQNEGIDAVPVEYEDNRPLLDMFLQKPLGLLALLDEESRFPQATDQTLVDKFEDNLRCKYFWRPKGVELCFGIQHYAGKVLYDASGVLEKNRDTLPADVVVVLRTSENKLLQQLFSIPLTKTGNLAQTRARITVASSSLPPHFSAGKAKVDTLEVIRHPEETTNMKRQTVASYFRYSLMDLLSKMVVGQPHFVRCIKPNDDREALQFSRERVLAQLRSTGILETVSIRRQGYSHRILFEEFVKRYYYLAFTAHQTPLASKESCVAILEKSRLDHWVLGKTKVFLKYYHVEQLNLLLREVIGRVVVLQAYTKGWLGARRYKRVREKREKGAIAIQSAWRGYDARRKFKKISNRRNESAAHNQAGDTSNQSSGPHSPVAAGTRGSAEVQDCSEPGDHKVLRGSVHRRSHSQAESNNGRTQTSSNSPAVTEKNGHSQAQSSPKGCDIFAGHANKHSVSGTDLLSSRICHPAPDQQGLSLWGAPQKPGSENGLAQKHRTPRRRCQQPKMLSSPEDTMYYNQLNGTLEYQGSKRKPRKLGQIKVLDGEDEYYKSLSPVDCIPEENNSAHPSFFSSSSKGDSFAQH", "method_in_brief": "as §1"}, "[2]": {"target": "T31, JAK3(JH1domain-catalytic) (Homo sapiens, UniProt P52333)", "T31 construct": "JAK3(JH1domain-catalytic); purchased Ambit (DiscoverX) KINOMEscan; Cerep", "T31 sequence (P52333 822-1124 limits assumed)": "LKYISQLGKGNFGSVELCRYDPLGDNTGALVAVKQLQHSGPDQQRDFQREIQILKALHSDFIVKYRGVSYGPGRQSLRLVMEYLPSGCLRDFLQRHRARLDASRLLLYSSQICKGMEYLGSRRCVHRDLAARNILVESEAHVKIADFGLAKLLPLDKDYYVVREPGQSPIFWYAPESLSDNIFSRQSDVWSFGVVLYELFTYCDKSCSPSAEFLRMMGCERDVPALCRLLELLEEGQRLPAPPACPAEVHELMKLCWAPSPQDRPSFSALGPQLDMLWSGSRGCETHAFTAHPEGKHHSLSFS", "method_in_brief": "as §1"}, "MAPKAPK2": {"target": "T32, MAPKAPK2 (Homo sapiens, UniProt P49137)", "T32 construct": "purchased Ambit (DiscoverX) KINOMEscan; Cerep", "T32 sequence (P49137 whole entry)": "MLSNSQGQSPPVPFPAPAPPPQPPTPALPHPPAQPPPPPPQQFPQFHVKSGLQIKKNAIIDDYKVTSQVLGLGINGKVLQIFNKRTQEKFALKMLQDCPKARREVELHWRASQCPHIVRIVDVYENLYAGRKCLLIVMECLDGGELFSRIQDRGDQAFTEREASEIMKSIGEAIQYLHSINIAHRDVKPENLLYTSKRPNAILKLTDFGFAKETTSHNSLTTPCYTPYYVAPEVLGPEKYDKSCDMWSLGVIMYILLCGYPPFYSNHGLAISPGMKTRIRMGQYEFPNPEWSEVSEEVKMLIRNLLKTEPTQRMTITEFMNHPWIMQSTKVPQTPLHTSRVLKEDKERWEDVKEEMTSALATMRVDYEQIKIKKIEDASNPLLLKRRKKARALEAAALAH", "method_in_brief": "as §1"}},
  "data": [
    {"smiles": "CCCCN1CCN(C(=N)c2cccc(NC(=O)Nc3ccc(S(=O)(=O)NCc4ccc(S(N)(=O)=O)cc4)cc3)c2)CC1", "note": "[SC81458, 4-(3-(3-((4-butylpiperazin-1-yl)(imino)methyl)phenyl)ureido)-N-(4-sulfamoylbenzyl) benzenesulfonamide]", "values": [
      {"measurement": "remaining binding at 10 µM", "setting": "FLT3(D835H)", "value": 100, "unit": "%"},
      {"measurement": "remaining binding at 10 µM", "setting": "CAMK1d", "value": 91, "unit": "%"},
      {"measurement": "remaining binding at 10 µM", "setting": "DCAMKL1", "value": 100, "unit": "%"},
      {"measurement": "remaining binding at 10 µM", "setting": "IKK-epsilon", "value": 100, "unit": "%"},
      {"measurement": "remaining binding at 10 µM", "setting": "ICK", "value": 73, "unit": "%"},
      {"measurement": "remaining binding at 10 µM", "setting": "DAPK1", "value": 100, "unit": "%"},
      {"measurement": "remaining binding at 10 µM", "setting": "STK33", "value": 100, "unit": "%"},
      {"measurement": "remaining binding at 10 µM", "setting": "MST3", "value": 100, "unit": "%"},
      {"measurement": "remaining binding at 10 µM", "setting": "CAMK2a", "value": 100, "unit": "%"},
      {"measurement": "remaining binding at 10 µM", "setting": "FLT4", "value": 100, "unit": "%"},
      {"measurement": "remaining binding at 10 µM", "setting": "PAK1", "value": 100, "unit": "%"},
      {"measurement": "remaining binding at 10 µM", "setting": "PIK3CA(M1043I)", "value": 100, "unit": "%"},
      {"measurement": "remaining binding at 10 µM", "setting": "PIK3CA(E545A)", "value": 100, "unit": "%"},
      {"measurement": "remaining binding at 10 µM", "setting": "ABL1", "value": 100, "unit": "%"},
      {"measurement": "remaining binding at 10 µM", "setting": "SRC", "value": 81, "unit": "%"},
      {"measurement": "remaining binding at 10 µM", "setting": "PIK3Cb", "value": 70, "unit": "%"},
      {"measurement": "remaining binding at 10 µM", "setting": "ULK2", "value": 100, "unit": "%"},
      {"measurement": "remaining binding at 10 µM", "setting": "DYRK1a", "value": 100, "unit": "%"},
      {"measurement": "remaining binding at 10 µM", "setting": "ERK5", "value": 100, "unit": "%"},
      {"measurement": "remaining binding at 10 µM", "setting": "MLCK", "value": 100, "unit": "%"},
      {"measurement": "remaining binding at 10 µM", "setting": "SIK2", "value": 100, "unit": "%"},
      {"measurement": "remaining binding at 10 µM", "setting": "TIE2", "value": 100, "unit": "%"},
      {"measurement": "remaining binding at 10 µM", "setting": "GCN2(kin.Dom.2, S808G)", "value": 100, "unit": "%"},
      {"measurement": "remaining binding at 10 µM", "setting": "YSK4", "value": 100, "unit": "%"},
      {"measurement": "remaining binding at 10 µM", "setting": "MUSK", "value": 95, "unit": "%"},
      {"measurement": "remaining binding at 10 µM", "setting": "ABL2", "value": 77, "unit": "%"},
      {"measurement": "remaining binding at 10 µM", "setting": "[1]", "value": 100, "unit": "%"},
      {"measurement": "remaining binding at 10 µM", "setting": "TLK2", "value": 97, "unit": "%"},
      {"measurement": "remaining binding at 10 µM", "setting": "STK39", "value": 57, "unit": "%"},
      {"measurement": "remaining binding at 10 µM", "setting": "MYO3b", "value": 100, "unit": "%"},
      {"measurement": "remaining binding at 10 µM", "setting": "[2]", "value": 100, "unit": "%"},
      {"measurement": "remaining binding at 10 µM", "setting": "MAPKAPK2", "value": 71, "unit": "%"}
    ]}
  ]
}
